Format in all cases: cell-based
The subject of one experiment is N87. The experiment can be described thus: In vitro tumor cell proliferation assay (Cell Titer-Glo) in N87 cells. To be noted: N87 human gastric carcinoma overexpressing HER2 and HER1; 72 hours exposure; read-out: IC50, activities in N87 cell lines. The source says: (§1) The tumor cell proliferation assay used to test the compounds of the present invention involves a readout called Cell Titer-Glow® Luminescent Cell Viability Assay developed by Promega® (Cunningham, BA “A Growing Issue: Cell Proliferation Assays, Modern kits ease quantification of cell growth” The Scientist 2001, 15(13), 26, and Crouch, S P et al., “The use of ATP bioluminescence as a measure of cell proliferation and cytotoxicity” Journal of Immunological Methods 1993, 160, 81-88), that measures inhibition of cell proliferation. Generation of a luminescent signal corresponds to the amount of ATP present, which is directly proportional to the number of metabolically active (proliferating) cells. A431 cells [human epidermoid carcinoma, ATCC # HTB-20, overexpressing HER1 (EGFR, ErbB1)] and N87 [human gastric carcinoma, ATCC # CRL-1555, overexpressing HER2 (ErbB2) and HER1 (EGFR, ErbB1)] were plated at a density of 2.5×10^3 cells/well in 96 well black-clear bottom tissue culture plates in RPMI media with 10% Fetal Bovine Serum and incubated at 37° C. Twenty-four hours later, test compounds are added at a final concentration range from as high 100 μm to as low […] depend on the activities of the tested compounds in serial dilutions at a final DMSO concentration of 0.1%. Cells were incubated for 72 hours at 37° C. in complete growth media after addition of the test compound. After 72 hours of drug exposure, the plates were equilibrated to room temperature for approximately 30 min. Then, using a Promega Cell Titer Glo Luminescent® assay kit, lysis buffer containing 100 microliters of the enzyme luciferase and its substrate, luciferin mixture, was added to each well. The plates were mixed for 2 min on orbital shaker to ensure cell lysis and incubated for 10 min at room temperature to stabilize luminescence signal. The samples were read on VICTOR2 using Luminescence protocol, and analyzed with Analyze5 software to generate IC50 values.

For the next experiment, the system named is A431 cells. Description: In vitro tumor cell proliferation assay (Cell Titer-Glo) in A431 cells. To be noted: Homo sapiens, A-431, 72 h, A431 human epidermoid carcinoma overexpressing HER1; 72 hours exposure; read-out: IC50, activities in A431 cell lines.
Text: as §1

In another experiment the test system is H1975 cells. The experiment can be described thus: In vitro tumor cell proliferation assay (Cell Titer-Glo) in H1975 cells. To be noted: NCI-H1975; H1975 human NSCLC expressing mutant HER1 (L858R,T790M); 72 hours exposure; read-out: IC50, activities in H 1975 cell lines. From the text: The tumor cell proliferation assay used to test the compounds of the present invention involves a readout called Cell Titer-Glow® Luminescent Cell Viability Assay developed by Promega® (Cunningham, BA “A Growing Issue: Cell Proliferation Assays, Modern kits ease quantification of cell growth” The Scientist 2001, 15(13), 26, and Crouch, S P et al., “The use of ATP bioluminescence as a measure of cell proliferation and cytotoxicity” Journal of Immunological Methods 1993, 160, 81-88), that measures inhibition of cell proliferation. Generation of a luminescent signal corresponds to the amount of ATP present, which is directly proportional to the number of metabolically active (proliferating) cells.
H1975 cells [human non small cell lung carcinoma, ATCC # CRL-5908, expressing mutant HER1 [(EGFR, ErbB1)(L858R,T790M] were plated at a density of 3×10^3 cells/well in 96 well black-clear bottom tissue culture plates in RPMI media with 10% Fetal Bovine Serum and incubated at 37° C. Twenty-four hours later, test compounds are added at a final concentration range from as high 10 uM to as low 64 pM depending on the activities of the tested compounds in serial dilutions at a final DMSO concentration of 0.1%. Cells were incubated for 72 hours at 37° C. in complete growth media after addition of the test compound. After 72 hours of drug exposure, the plates were equilibrated to room temperature for approximately 30 min. Then, using a Promega Cell Titer Glo Luminescent® assay kit, lysis buffer containing 100 microliters of the enzyme luciferase and its substrate, luciferin mixture, was added to each well. The plates were mixed for 2 min on orbital shaker to ensure cell lysis and incubated for 10 min at room temperature to stabilize luminescence signal. The samples were read on VICTOR2 using Luminescence protocol, and analyzed with Analyze5 software to generate IC50 values.

Bounds are passed on as bounds.

As to `O=C(/C=C/CN1CCOCC1)N1CCc2c(sc3ncnc(Nc4ccc(F)c(Cl)c4)c23)C1` [Example 6, N-(3-chloro-4-fluorophenyl)-7-[(2E)-4-morpholin-4-ylbut-2-enoyl]-5,6,7,8-tetrahydropyrido[4′,3′:4,5]thieno[2,3-d]pyrimidin-4-amine], the half-maximal inhibitory concentration (IC50) is under 0.2 µM with N87, under 0.2 µM in the experiment on A431 cells and 1 to 10 µM in the experiment on H1975 cells.

For the molecule `O=C(/C=C/CN1CCCC1)N1CCc2c(sc3ncnc(Nc4ccc(Cl)c(Cl)c4)c23)C1` [Example 192, N-(3,4-dichlorophenyl)-7-[(2E)-4-pyrrolidin-1-ylbut-2-enoyl]-5,6,7,8-tetrahydropyrido [4′,3′:4,5]thieno[2,3-d]pyrimidin-4-amine], the half-inhibitory concentration (IC50) is under 0.2 µM in the experiment with N87, 0.2 to 1 µM in the experiment on A431 cells and 0.2 to 1 µM in the experiment with H1975 cells.

In the case of `CCN(C)C/C=C/C(=O)N1CCc2c(sc3ncnc(Nc4ccc(OCc5cnccn5)c(Cl)c4)c23)C1` [Example 81, N-[3-chloro-4-(pyrazin-2-ylmethoxy)phenyl]-7-{(2E)-4-[ethyl(methyl)amino]but-2-enoyl}-5,6,7,8-tetrahydropyrido [4′,3′:4,5]thieno[2,3-d]pyrimidin-4-amine], the IC50 in the experiment with N87 is under 0.2 µM; in the experiment with A431 cells, 1 to 10 µM; with H1975 cells, 0.2 to 1 µM.

As for `O=C(/C=C/CN1CCCC(CO)C1)N1CCc2c(sc3ncnc(Nc4ccc(F)c(Cl)c4)c23)C1` (stereo not drawn) [Example 69, {1-[(2E)-4-{4-[(3-chloro-4-fluorophenyl)amino]-5,8-dihydropyrido [4′,3′:4,5]thieno[2,3-d]pyrimidin-7(6H)-yl}-4-oxobut-2-en-1-yl]piperidin-3-yl}methanol], the IC50 in the experiment on N87 was under 0.2 µM; in the experiment on A431 cells, 0.2 to 1 µM; with H1975 cells, 0.2 to 1 µM.

For `O=C(/C=C/CCO)N1CCc2c(sc3ncnc(Nc4ccc(F)c(Cl)c4)c23)C1` [Example 151, (3E)-5-{4-[(3-chloro-4-fluorophenyl)amino]-5,8-dihydropyrido [4′,3′:4,5]thieno[2,3-d]pyrimidin-7(6H)-yl}-5-oxopent-3-en-1-ol], the figures for the IC50 with N87, with A431 cells and with H1975 cells were 0.2 to 5 µM, 1 to 10 µM and 1 to 10 µM, respectively.

For the molecule `CN(C)C/C=C/C(=O)N1CCc2c(sc3ncnc(Nc4ccc(OCc5cccnc5)c(Cl)c4)c23)C1` [Example 87, N-[3-chloro-4-(pyridin-3-ylmethoxy)phenyl]-7-[(2E)-4-(dimethylamino)but-2-enoyl]-5,6,7,8-tetrahydropyrido [4′,3′:4,5]thieno[2,3-d]pyrimidin-4-amine], the IC50 in the experiment on N87 is under 0.2 µM; in the experiment with A431 cells it was 0.2 to 1 µM; in the experiment on H1975 cells it was 0.2 to 1 µM.

Regarding `C=CC(=O)N1CCc2c(sc3ncnc(Nc4ccc(OCc5ccccn5)c(Cl)c4)c23)C1` [Example 28], the half-inhibitory concentration (IC50) was under 0.2 µM in the experiment with N87, 1 to 10 µM in the experiment with A431 cells and under 0.2 µM with H1975 cells.

As for `O=C(/C=C/CN1CCOCC1)N1CCc2c(sc3ncnc(Nc4ccc5c(cnn5Cc5ccccc5)c4)c23)C1` [Example 103, N-(1-benzyl-1H-indazol-5-yl)-7-[(2E)-4-morpholin-4-ylbut-2-enoyl]-5,6,7,8-tetrahydropyrido [4′,3′:4,5]thieno[2,3-d]pyrimidin-4-amine], the IC50 in the experiment with N87 was under 0.2 µM; with A431 cells, 0.2 to 1 µM; in the experiment on H1975 cells it was 1 to 10 µM.

For the molecule `O=C(/C=C/CN1CCN(CCO)CC1)N1CCc2c(sc3ncnc(Nc4ccc(OCc5ccccn5)c(Cl)c4)c23)C1` [Example 62, 2-(4-{(2E)-4-[4-{[3-chloro-4-(pyridin-2-ylmethoxy)phenyl]amino}-5,8-dihydropyrido [4′,3′:4,5]thieno[2,3-d]pyrimidin-7(6H)-yl]-4-oxobut-2-en-1-yl}piperazin-1-yl)ethanol], the IC50 with N87 was under 0.2 µM; with A431 cells, 0.2 to 1 µM; in the experiment with H1975 cells it was 0.2 to 1 µM.

Take `CN(C)C/C=C/C(=O)N1CCc2c(sc3ncnc(Nc4cccc(Cl)c4)c23)C1` [Example 164, N-(3-chlorophenyl)-7-[(2E)-4-(dimethylamino)but-2-enoyl]-5,6,7,8-tetrahydropyrido [4′,3′:4,5]thieno[2,3-d]pyrimidin-4-amine]: the half-inhibitory concentration (IC50) in the experiment on N87 was under 0.2 µM; with A431 cells it was 0.2 to 1 µM; in the experiment with H1975 cells, 0.2 to 1 µM.

With `O=C(/C=C/CN1CCOCC1)N1CCc2c(sc3ncnc(Nc4ccc5c(cnn5Cc5cccc(F)c5)c4)c23)C1` [Example 102, N-[1-(3-fluorobenzyl)-1H-indazol-5-yl]-7-[(2E)-4-morpholin-4-ylbut-2-enoyl]-5,6,7,8-tetrahydropyrido [4′,3′:4,5]thieno[2,3-d]pyrimidin-4-amine], the values for the IC50 in the experiment on N87, in the experiment on A431 cells and with H1975 cells were under 0.2 µM, 0.2 to 1 µM and 1 to 10 µM, respectively.

In the case of `Cc1cc(Nc2ncnc3sc4c(c23)CCN(C(=O)/C=C/CN(C)C)C4)ccc1Cl` [Example 183, N-(4-chloro-3-methylphenyl)-7-[(2E)-4-(dimethylamino)but-2-enoyl]-5,6,7,8-tetrahydropyrido [4′,3′:4,5]thieno[2,3-d]pyrimidin-4-amine], the IC50 was under 0.2 µM in the experiment with N87, 0.2 to 1 µM with A431 cells and under 0.2 µM in the experiment on H1975 cells.

`CCN(C/C=C/C(=O)N1CCc2c(sc3ncnc(Nc4ccc(Cl)c(Cl)c4)c23)C1)C(C)C` [Example 205, N-(3,4-dichlorophenyl)-7-{(2E)-4-[ethyl(isopropyl)amino]but-2-enoyl}-5,6,7,8-tetrahydropyrido [4′,3′:4,5]thieno[2,3-d]pyrimidin-4-amine]: the IC50 in the experiment on N87, in the experiment with A431 cells and in the experiment on H1975 cells was under 0.2 µM in each case.

In the case of `O=C(/C=C/CN(CCO)CCO)N1CCc2c(sc3ncnc(Nc4ccc(OCc5ccccn5)c(Cl)c4)c23)C1` [Example 43, 2,2′-({(2E)-4-[4-{[3-chloro-4-(pyridin-2-ylmethoxy)phenyl]amino}-5,8-dihydropyrido [4′,3′:4,5]thieno[2,3-d]pyrimidin-7(6H)-yl]-4-oxobut-2-en-1-yl}imino)diethanol], the IC50 was under 0.2 µM in the experiment with N87, 1 to 10 µM in the experiment with A431 cells and 1 to 10 µM in the experiment on H1975 cells.

For `CCN(CC)C/C=C/C(=O)N1CCc2c(sc3ncnc(Nc4ccc(OCc5ccccn5)c(Cl)c4)c23)C1` [Example 2, N-[3-chloro-4-(pyridin-2-ylmethoxy)phenyl]-7-[(2E)-4-(diethylamino)but-2-enoyl]-5,6,7,8-tetrahydropyrido[4′,3′:4,5]thieno[2,3-d]pyrimidin-4-amine], the IC50 in the experiment with N87 was under 0.2 µM; in the experiment on A431 cells, under 0.2 µM; with H1975 cells, 1 to 10 µM.

In the case of `CN(C/C=C/C(=O)N1CCc2c(sc3ncnc(Nc4ccc5c(ccn5Cc5cccc(F)c5)c4)c23)C1)C(C)(C)C` [Example 125, 7-{(2E)-4-[tert-butyl(methyl)amino]but-2-enoyl}-N-[1-(3-fluorobenzyl)-1H-indol-5-yl]-5,6,7,8-tetrahydropyrido [4′,3′:4,5]thieno[2,3-d]pyrimidin-4-amine], the IC50 is under 0.2 µM with N87, 0.2 to 1 µM in the experiment on A431 cells and 0.2 to 1 µM in the experiment with H1975 cells.

With `CN(C)C/C=C/C(=O)N1CCc2c(sc3ncnc(Nc4ccc(OCc5cnccn5)c(Cl)c4)c23)C1` [Example 85, N-[3-chloro-4-(pyrazin-2-ylmethoxy)phenyl]-7-[(2E)-4-(dimethylamino)but-2-enoyl]-5,6,7,8-tetrahydropyrido [4′,3′:4,5]thieno[2,3-d]pyrimidin-4-amine], the IC50 with N87 was under 0.2 µM; in the experiment with A431 cells it was 0.2 to 1 µM; with H1975 cells, 0.2 to 1 µM.
